The values that follow are results of earlier work, collected in patent US20210137919A1, “PHARMACEUTICAL FORMULATIONS, METHOD FOR PRODUCING A PHARMACEUTICAL FORMULATION, AND MEDICAMENT COMPRISING SAME” (SmaWa GmbH, priority 2018, published 2021).

For `CN1CC(=O)N2[C@H](c3ccc4c(c3)OCO4)c3[nH]c4ccccc4c3C[C@@H]2C1=O` [tadalafil], the solubility in water was 2 to 3.2 µg/mL.
